System: HT-29 cells
Assay: HT-29 necroptosis cell viability assay (TNF-α/SMAC mimetic/zVAD-FMK, CellTiter-Glo)
Assay type: cell-based
Conditions: Homo sapiens, HT-29, HT-29 necroptosis cell viability assay; class symbols for IC50; read-out: Activity
Method in brief: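 HT-29 cells (~5,000/well, overnight) in FBS-free McCoy's 5A with TNF-α 10 ng/ml, SMAC mimetic 6 μM and zVAD-FMK 10 μM plus 10-point 1:3 compound titration, 20 h at 37°C. ATP measured by CellTiter-Glo luminescence; IC50 as geometric mean of duplicates.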

For `Cc1nc(C(F)(F)C(N)=O)sc1Oc1ccc(-n2ncn(Cc3c(F)cccc3F)c2=O)cc1F` [Example 116, 2-(5-(4-(4-(2,6-difluorobenzyl)-5-oxo-4,5-dihydro-1H-1,2,4-triazol-1-yl)-2-fluorophenoxy)-4-methylthiazol-2-yl)-2,2-difluoroacetamide], which IC50 is on record?
Its IC50 is under 100 nM.

For `CCOC(=O)C(=O)c1nc(C)c(Oc2ccc(-n3ncn(Cc4c(F)cccc4F)c3=O)cc2F)s1` [Example 117, ethyl 2-(5-(4-(4-(2,6-difluorobenzyl)-5-oxo-4,5-dihydro-1H-1,2,4-triazol-1-yl)-2-fluorophenoxy)-4-methylthiazol-2-yl)-2-oxoacetate], which IC50 is on record?
Its IC50 is 100 to 1000 nM.

For `CCOC(=O)C(F)(F)c1nc(C)c(Oc2ccc(-n3ncn(Cc4c(F)cccc4F)c3=O)cc2F)s1` [Example 118, ethyl 2-(5-(4-(4-(2,6-difluorobenzyl)-5-oxo-4,5-dihydro-1H-1,2,4-triazol-1-yl)-2-fluorophenoxy)-4-methylthiazol-2-yl)-2,2-difluoroacetate], which IC50 is on record?
The IC50 was 100 to 1000 nM.

For `Cc1nc(C#N)c(Oc2ccc(-n3ncn(Cc4c(F)cccc4F)c3=O)cc2F)s1` [Example 120, 5-(4-(4-(2,6-difluorobenzyl)-5-oxo-4,5-dihydro-1H-1,2,4-triazol-1-yl)-2-fluorophenoxy)-2-methylthiazole-4-carbonitrile], which IC50 is on record?
The IC50 was under 100 nM.

How did the IC50 turn out when `Cn1cc(C#N)nc1Oc1ccc(-n2ncn(Cc3c(F)cccc3F)c2=O)cc1F` [Example 121, 2-(4-(4-(2,6-difluorobenzyl)-5-oxo-4,5-dihydro-1H-1,2,4-triazol-1-yl)-2-fluorophenoxy)-1-methyl-1H-imidazole-4-carbonitrile] was run?
The IC50 was 100 to 1000 nM.

`Cc1nc(C#N)c(C)n1Cc1ccc(-n2ncn(Cc3c(F)cccc3F)c2=O)cc1F` [Example 122, 1-(4-(4-(2,6-difluorobenzyl)-5-oxo-4,5-dihydro-1H-1,2,4-triazol-1-yl)-2-fluorobenzyl)-2,5-dimethyl-1H-imidazole-4-carbonitrile] was tested. Which IC50 did it give?
The IC50 was under 100 nM.

For `Cc1nc(C)n(Cc2ccc(-n3ncn(Cc4c(F)cccc4F)c3=O)cc2F)c1C#N` [Example 123, 1-(4-(4-(2,6-difluorobenzyl)-5-oxo-4,5-dihydro-1H-1,2,4-triazol-1-yl)-2-fluorobenzyl)-2,4-dimethyl-1H-imidazole-5-carbonitrile], which IC50 is on record?
The IC50 was 100 to 1000 nM.

With `Cc1cc(C#N)c(C)n1Cc1ccc(-n2ncn(Cc3c(F)cccc3F)c2=O)cc1F` [Example 124, 1-(4-(4-(2,6-difluorobenzyl)-5-oxo-4,5-dihydro-1H-1,2,4-triazol-1-yl)-2-fluorobenzyl)-2,5-dimethyl-1H-pyrrole-3-carbonitrile] as the compound, how does the IC50 read?
The IC50 was under 100 nM.

Which IC50 does the source give for `Cc1nc(C#N)cn1Cc1ccc(-n2ncn(Cc3c(F)cccc3F)c2=O)cc1F` [Example 125, 1-(4-(4-(2,6-difluorobenzyl)-5-oxo-4,5-dihydro-1H-1,2,4-triazol-1-yl)-2-fluorobenzyl)-2-methyl-1H-imidazole-4-carbonitrile] here?
Its IC50 is under 100 nM.

`Cc1nc(C(C)(C)O)c(Oc2ccc(-n3ncn(Cc4c(F)cccc4F)c3=O)cc2F)s1` [Example 126, 4-(2,6-difluorobenzyl)-2-(3-fluoro-4-((4-(2-hydroxypropan-2-yl)-2-methylthiazol-5-yl)oxy)phenyl)-2,4-dihydro-3H-1,2,4-triazol-3-one] was tested. Which IC50 did it give?
Its IC50 is 100 to 1000 nM.

With `COC(=O)c1nc(C)sc1Oc1ccc(-n2ncn(Cc3c(F)cccc3F)c2=O)cc1F` [Example 127, methyl 5-(4-(4-(2,6-difluorobenzyl)-5-oxo-4,5-dihydro-1H-1,2,4-triazol-1-yl)-2-fluorophenoxy)-2-methylthiazole-4-carboxylate] as the compound, how does the IC50 read?
The IC50 was under 100 nM.

For `COC(=O)c1ncsc1Oc1ccc(-n2ncn(Cc3c(F)cccc3F)c2=O)cc1F` [Example 128, methyl 5-(4-(4-(2,6-difluorobenzyl)-5-oxo-4,5-dihydro-1H-1,2,4-triazol-1-yl)-2-fluorophenoxy)thiazole-4-carboxylate], which IC50 is on record?
Its IC50 is 100 to 1000 nM.

For `Cc1nc(C(C)(C)O)sc1Oc1ccc(-n2ncn(Cc3ncccc3C#N)c2=O)cc1F` [Example 129, 2-((1-(3-fluoro-4-((2-(2-hydroxypropan-2-yl)-4-methylthiazol-5-yl)oxy)phenyl)-5-oxo-1,5-dihydro-4H-1,2,4-triazol-4-yl)methyl)nicotinonitrile], which IC50 is on record?
Its IC50 is 100 to 1000 nM.

How did the IC50 turn out when `Cn1nc(C(C)(C)O)cc1Oc1ccc(-n2nc3n(c2=O)C(c2ccccc2)CC3)cc1F` (stereo not drawn) [Example 130, 2-(3-fluoro-4-((3-(2-hydroxypropan-2-yl)-1-methyl-1H-pyrazol-5-yl)oxy)phenyl)-5-phenyl-2,5,6,7-tetrahydro-3H-pyrrolo[2,1-c][1,2,4]triazol-3-one] was run?
Its IC50 is under 100 nM.

`Cn1cc(C(C)(C)O)nc1Oc1ccc(-n2ncn(Cc3c(F)cccc3F)c2=O)cc1F` [Example 131, 4-(2,6-difluorobenzyl)-2-(3-fluoro-4-((4-(2-hydroxypropan-2-yl)-1-methyl-1H-imidazol-2-yl)oxy)phenyl)-2,4-dihydro-3H-1,2,4-triazol-3-one] was tested. Which IC50 did it give?
Its IC50 is over 10000 nM.

How did the IC50 turn out when `Cn1c(C(C)(C)O)cnc1Oc1ccc(-n2ncn(Cc3c(F)cccc3F)c2=O)cc1F` [Example 132, 4-(2,6-difluorobenzyl)-2-(3-fluoro-4-((5-(2-hydroxypropan-2-yl)-1-methyl-1H-imidazol-2-yl)oxy)phenyl)-2,4-dihydro-3H-1,2,4-triazol-3-one] was run?
Its IC50 is 1000 to 10000 nM.

With `Cc1nc(C(C)(C)O)n(C)c1Oc1ccc(-n2ncn(Cc3c(F)cccc3F)c2=O)cc1F` [Example 133, 4-(2,6-difluorobenzyl)-2-(3-fluoro-4-((2-(2-hydroxypropan-2-yl)-1,4-dimethyl-1H-imidazol-5-yl)oxy)phenyl)-2,4-dihydro-3H-1,2,4-triazol-3-one] as the compound, how does the IC50 read?
The IC50 was 100 to 1000 nM.

`Cn1nc(C(C)(C)O)cc1Oc1ccc(-n2ncn(Cc3c(F)cccc3F)c2=O)cc1F` [Example 134, 4-(2,6-difluorobenzyl)-2-(3-fluoro-4-((3-(2-hydroxypropan-2-yl)-1-methyl-1H-pyrazol-5-yl)oxy)phenyl)-2,4-dihydro-3H-1,2,4-triazol-3-one] was tested. Which IC50 did it give?
Its IC50 is under 100 nM.

`Cc1nc(C(C)(C)O)c(C)n1Cc1ccc(-n2ncn(Cc3c(F)cccc3F)c2=O)cc1F` [Example 135, 4-(2,6-difluorobenzyl)-2-(3-fluoro-4-((4-(2-hydroxypropan-2-yl)-2,5-dimethyl-1H-imidazol-1-yl)methyl)phenyl)-2,4-dihydro-3H-1,2,4-triazol-3-one] was tested. Which IC50 did it give?
Its IC50 is 1000 to 10000 nM.

With `Cc1nc(C(C)(C)O)cn1Cc1ccc(-n2nc3n(c2=O)C(c2ccccc2)CC3)cc1F` (stereo not drawn) [Example 136, 2-(3-fluoro-4-((4-(2-hydroxypropan-2-yl)-2-methyl-1H-imidazol-1-yl)methyl)phenyl)-5-phenyl-2,5,6,7-tetrahydro-3H-pyrrolo[2,1-c][1,2,4]triazol-3-one] as the compound, how does the IC50 read?
Its IC50 is 1000 to 10000 nM.

With `Cc1nc(C(C)(C)O)cn1Cc1ccc(-n2ncn(Cc3c(F)cccc3F)c2=O)cc1F` [Example 137, 4-(2,6-difluorobenzyl)-2-(3-fluoro-4-((4-(2-hydroxypropan-2-yl)-2-methyl-1H-imidazol-1-yl)methyl)phenyl)-2,4-dihydro-3H-1,2,4-triazol-3-one] as the compound, how does the IC50 read?
The IC50 was 1000 to 10000 nM.

`Cc1nc(CC(N)=O)c(Oc2ccc(-n3ncn(Cc4c(F)cccc4F)c3=O)cc2F)s1` [Example 138, 2-(5-(4-(4-(2,6-difluorobenzyl)-5-oxo-4,5-dihydro-1H-1,2,4-triazol-1-yl)-2-fluorophenoxy)-2-methylthiazol-4-yl)acetamide] was tested. Which IC50 did it give?
The IC50 was under 100 nM.

How did the IC50 turn out when `Cc1nc(CC#N)sc1Oc1ccc(-n2ncn(Cc3c(F)cccc3F)c2=O)cc1Cl` [Example 139, 2-(5-(2-chloro-4-(4-(2,6-difluorobenzyl)-5-oxo-4,5-dihydro-1H-1,2,4-triazol-1-yl)phenoxy)-4-methylthiazol-2-yl)acetonitrile] was run?
Its IC50 is under 100 nM.

How did the IC50 turn out when `Cn1nc(CC#N)cc1Oc1ccc(-n2ncn(Cc3c(F)cccc3F)c2=O)cc1F` [Example 140, 2-(5-(4-(4-(2,6-difluorobenzyl)-5-oxo-4,5-dihydro-1H-1,2,4-triazol-1-yl)-2-fluorophenoxy)-1-methyl-1H-pyrazol-3-yl)acetonitrile] was run?
The IC50 was under 100 nM.

For `Cc1nc(CC#N)cn1Cc1ccc(-n2ncn(Cc3c(F)cccc3F)c2=O)cc1F` [Example 141, 2-(1-(4-(4-(2,6-difluorobenzyl)-5-oxo-4,5-dihydro-1H-1,2,4-triazol-1-yl)-2-fluorobenzyl)-2-methyl-1H-imidazol-4-yl)acetonitrile], which IC50 is on record?
The IC50 was 100 to 1000 nM.

For `Cc1nc(CC#N)c(C)n1Cc1ccc(-n2ncn(Cc3c(F)cccc3F)c2=O)cc1F` [Example 142, 2-(1-(4-(4-(2,6-difluorobenzyl)-5-oxo-4,5-dihydro-1H-1,2,4-triazol-1-yl)-2-fluorobenzyl)-2,5-dimethyl-1H-imidazol-4-yl)acetonitrile], which IC50 is on record?
The IC50 was 1000 to 10000 nM.

With `Cc1c(CC(N)=O)nn(C)c1Oc1ccc(-n2ncn(Cc3c(F)cccc3F)c2=O)cc1F` [Example 143, 2-(5-(4-(4-(2,6-difluorobenzyl)-5-oxo-4,5-dihydro-1H-1,2,4-triazol-1-yl)-2-fluorophenoxy)-1,4-dimethyl-1H-pyrazol-3-yl)acetamide] as the compound, how does the IC50 read?
Its IC50 is under 100 nM.

Which IC50 does the source give for `CC1(O)CN(c2nc(C(F)F)c(Oc3ccc(-n4ncn(Cc5c(F)cccc5F)c4=O)cc3F)s2)C1` [Example 144, 4-(2,6-difluorobenzyl)-2-(4-((4-(difluoromethyl)-2-(3-hydroxy-3-methylazetidin-1-yl)thiazol-5-yl)oxy)-3-fluorophenyl)-2,4-dihydro-3H-1,2,4-triazol-3-one] here?
Its IC50 is under 100 nM.

How did the IC50 turn out when `O=c1n(Cc2c(F)cccc2F)cnn1-c1ccc(Oc2scnc2CO)c(F)c1` [Example 145, 4-(2,6-difluorobenzyl)-2-(3-fluoro-4-((4-(hydroxymethyl)thiazol-5-yl)oxy)phenyl)-2,4-dihydro-3H-1,2,4-triazol-3-one] was run?
The IC50 was under 100 nM.

Same assay, conditions: Homo sapiens; HT-29 cells stimulated with TNF-α (10 ng/ml), SMAC mimetic (6 μM) and zVAD-FMK (10 μM); 20 hours; CellTiter-Glo ATP luminescence; geometric mean IC50 from 10 points; read-out: Activity

With `Cc1nc(C2CC(C)(O)C2)sc1Oc1ccc(-n2ncn(Cc3c(F)cccc3F)c2=O)cc1F` (stereo not drawn) [Example 119, 4-(2,6-difluorobenzyl)-2-(3-fluoro-4-((2-(3-hydroxy-3-methylcyclobutyl)-4-methylthiazol-5-yl)oxy)phenyl)-2,4-dihydro-3H-1,2,4-triazol-3-one] as the compound, how does the IC50 read?
The IC50 was under 100 nM.

— US20250179061A1 (SIRONAX LTD., priority 2022, published 2025)
